Assay results as given in ChEMBL document CHEMBL3632495, “Discovery of 1,1'-Biphenyl-4-sulfonamides as a New Class of Potent and Selective Carbonic Anhydrase XIV Inhibitors” (J Med Chem, 2015).

Assays:
[1] = molecular target: Carbonic anhydrase 2 (Homo sapiens, UniProt P00918)
Description: Inhibition of human carbonic anhydrase-2 assessed as CO2 hydration activity by stopped-flow method

[2] = molecular target: Carbonic anhydrase 1 (Homo sapiens, UniProt P00915)
Description: Inhibition of human carbonic anhydrase-1 assessed as CO2 hydration activity by stopped-flow method

[3] = molecular target: Carbonic anhydrase 9 (Homo sapiens, UniProt Q16790)
Description: Inhibition of human carbonic anhydrase-9 assessed as CO2 hydration activity by stopped-flow method

[4] = molecular target: Carbonic anhydrase 12 (Homo sapiens, UniProt O43570)
Chain of Carbonic anhydrase 12 (O43570 whole entry): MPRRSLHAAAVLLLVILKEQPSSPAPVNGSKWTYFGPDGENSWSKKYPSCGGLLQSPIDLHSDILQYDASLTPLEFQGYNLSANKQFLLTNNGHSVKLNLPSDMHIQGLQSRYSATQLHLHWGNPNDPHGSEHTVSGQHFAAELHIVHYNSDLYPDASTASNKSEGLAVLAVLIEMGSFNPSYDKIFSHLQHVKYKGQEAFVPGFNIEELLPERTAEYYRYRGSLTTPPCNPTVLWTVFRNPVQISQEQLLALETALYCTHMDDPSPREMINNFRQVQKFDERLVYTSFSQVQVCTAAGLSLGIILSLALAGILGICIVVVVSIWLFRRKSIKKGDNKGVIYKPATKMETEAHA
Description: Inhibition of human carbonic anhydrase-12 assessed as CO2 hydration activity by stopped-flow method

Chain of Carbonic anhydrase 1 (P00915 whole entry): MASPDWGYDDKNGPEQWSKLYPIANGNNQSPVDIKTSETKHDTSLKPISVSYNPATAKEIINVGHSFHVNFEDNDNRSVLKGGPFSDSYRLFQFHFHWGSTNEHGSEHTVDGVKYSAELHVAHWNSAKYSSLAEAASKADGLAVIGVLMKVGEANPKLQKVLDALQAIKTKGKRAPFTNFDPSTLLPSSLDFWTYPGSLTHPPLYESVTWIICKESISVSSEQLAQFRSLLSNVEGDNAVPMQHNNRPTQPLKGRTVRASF

| Ki [1] | Ki [2] | Ki [3] | Ki [4] | SMILES |
| --- | --- | --- | --- | --- |
| 9 nM | 77 nM | 9.3 nM | 35.2 nM | COC(=O)c1ccc(-c2ccc(S(N)(=O)=O)cc2)cc1 |
| 42 nM | 78.8 nM | – | 44.9 nM | CC(C)(C)OC(=O)c1ccc(-c2ccc(S(N)(=O)=O)cc2)cc1 |
| 6.2 nM | 340 nM | 3.6 nM | 52.3 nM | NS(=O)(=O)c1ccc(-c2ccc(C(=O)O)cc2)cc1 |
| 5.3 nM | 67.5 nM | 823 nM | 8.3 nM | NC(=O)c1ccc(-c2ccc(S(N)(=O)=O)cc2)cc1 |
| 11.5 nM | 46.7 nM | – | 26.2 nM | NS(=O)(=O)c1ccc(-c2ccc(C(=O)NCCO)cc2)cc1 |
| 11.6 nM | 62.2 nM | 9.6 nM | 7.4 nM | NS(=O)(=O)c1ccc(-c2ccc([N+](=O)[O-])cc2)cc1 |
| 9.1 nM | 78.5 nM | – | 7.7 nM | Nc1ccc(-c2ccc(S(N)(=O)=O)cc2)cc1 |
| 4.3 nM | 1630 nM | – | 7.4 nM | NS(=O)(=O)c1ccc(-c2ccc(C(=O)c3ccccc3)cc2)cc1 |
| 4.9 nM | 52.7 nM | 8.9 nM | 81.1 nM | NS(=O)(=O)c1ccc(-c2ccc(C(O)c3ccccc3)cc2)cc1 (stereo unspecified) |
| 454 nM | 75.3 nM | 519 nM | 77.2 nM | NS(=O)(=O)c1ccc(-c2ccc(Cc3ccccc3)cc2)cc1 |
| 7.8 nM | 73.8 nM | 42.3 nM | 7.3 nM | COC(=O)c1ccc(C(=O)c2ccc(-c3ccc(S(N)(=O)=O)cc3)cc2)cc1 |
| 6.6 nM | 6.3 nM | – | 6.7 nM | COC(=O)c1ccc(C(O)c2ccc(-c3ccc(S(N)(=O)=O)cc3)cc2)cc1 (stereo unspecified) |
| 50.6 nM | 122 nM | 76.7 nM | 237 nM | COC(=O)c1ccc(Cc2ccc(-c3ccc(S(N)(=O)=O)cc3)cc2)cc1 |
| 4.8 nM | 263 nM | 8.5 nM | 45.5 nM | NS(=O)(=O)c1ccc(-c2ccc(C(=O)c3ccc(C(=O)O)cc3)cc2)cc1 |
| 814 nM | 72.5 nM | 450 nM | 93.9 nM | NS(=O)(=O)c1ccc(-c2ccc(C(O)c3ccc(C(=O)O)cc3)cc2)cc1 (stereo unspecified) |
| 6.9 nM | 236 nM | 31.4 nM | – | NS(=O)(=O)c1ccc(-c2ccc(Cc3ccc(C(=O)O)cc3)cc2)cc1 |
| 63.3 nM | 80.1 nM | – | 70.6 nM | NS(=O)(=O)c1ccc(-c2ccc(C(=O)c3ccc([N+](=O)[O-])cc3)cc2)cc1 |
| 5.9 nM | – | 678 nM | – | NS(=O)(=O)c1ccc(-c2ccc(C(O)c3ccc([N+](=O)[O-])cc3)cc2)cc1 (stereo unspecified) |
| 39.7 nM | 70.5 nM | 705 nM | 9.3 nM | NS(=O)(=O)c1ccc(-c2ccc(Cc3ccc([N+](=O)[O-])cc3)cc2)cc1 |
| 5.2 nM | 589 nM | 6 nM | 8.1 nM | Nc1ccc(Cc2ccc(-c3ccc(S(N)(=O)=O)cc3)cc2)cc1 |
